Source: PubChem BioAssay AID602251 (NMMLSC, 2012)
Calls of active or inactive are those of the source.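 The calls were made as follows: active = fitted concentration giving half of the maximal binding block below 66 µM; inactive = the rest.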

biological target: anti-desmoglein 3 scFv antibody binding to human desmoglein 3 (DSG3); experiment: inhibitors of anti-DSG3 scFv binding to DSG3, dose response, biochemical, DSG3-coupled beads, scFv-GFP, flow cytometry, Cherry Pick 1 (AID 602251); settings: not given;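 as to binding response, lower = inhibition: 100% = DMSO vehicle binding and 0% = soluble DSG3 blocking control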

| Structure (SMILES) | EC50 [µM] |
| --- | --- |
| O=C(CSc1ccc(Cl)cc1)Nc1cccc(-c2nc3ccccc3[nH]2)c1 | 59.2 |
| COc1ccc2cc(-c3cc(C(=O)OCC(=O)NC4CCS(=O)(=O)C4)c4ccccc4n3)ccc2c1 (stereo unspecified) | 19.2 |
| COc1ccc(N=C2S/C(=C\c3ccc(OCC(=O)O)cc3)C(=O)N2CCc2c[nH]c3ccccc23)cc1 | 15.8 |
| NC(=O)c1ccsc1NC(=O)COC(=O)c1cc(=O)[nH]c2ccccc12 | 30.2 |
| O=C1c2ccccc2C(=O)N1Cc1nn2c(-c3ccc(Cl)cc3)nnc2s1 | 36 |
| COc1cccc2c1NC(C(=O)O)C1CC=CC21 (stereo unspecified) | 32.1 |
| NS(=O)(=O)c1ccc(NC(=O)c2cc(-c3cccs3)nc3ccccc23)cc1 | 17.3 |
| Cc1ccc(C(C)C)c(OCC(=O)Nc2ccc(N3CCN(S(C)(=O)=O)CC3)cc2)c1 | 20.9 |
| COc1ccccc1NC(=O)Cn1nnc(-c2ccccc2NC(=O)c2cc3ccccc3oc2=O)n1 | 25.8 |
| Clc1ccc2nc(CSc3nnc(-c4c[nH]c5ccccc45)o3)cn2c1 | 24.8 |
| CN1C(=CC=C2C=C(I)C(=O)C(I)=C2)C(C)(C)c2ccccc21 | 15.7 |
| COc1cc(C(=O)Nc2cccc(-c3nc4cc(C)ccc4o3)c2C)cc(OC)c1OC | 24.6 |
| Cn1c(SCC(=O)NC2CCCCC2)nnc1-c1cc2cc(Cl)ccc2o1 | 21.1 |
| C=CCn1c(SCC(=O)N2CCN(c3ccccc3)CC2)nc2c([nH]c3ccccc32)c1=O | 50.9 |
| O=C(Nc1ccc(F)cc1)Nc1ccc([N+](=O)[O-])cn1 | 21.5 |
| CC(=O)Nc1cc(=O)c2cccnc2[nH]1 | 25.4 |
| C=CCNC(=O)c1c(N)n(-c2cccc(S(N)(=O)=O)c2)c2nc3ccccc3nc12 | 58.5 |
| O=C(Nc1ccc(N2CCOCC2)cc1)c1ccc2nc(-c3ccco3)c(-c3ccco3)nc2c1 | 25.4 |
| COc1ccc(-n2c(SCC(=O)Nc3nccs3)nnc2-c2ccc(Cl)cc2)cc1 | 28.1 |
| CCOC(=O)Cn1c(=NC(=O)c2cccs2)sc2cc(C(=O)OC)ccc21 | 26 |
| O=c1c2ccccc2sn1-c1nccs1 | 12.7 |

same assay, conditions: at 66.1 µM (top of the series)

| Structure (SMILES) | binding response, lower = inhibition |
| --- | --- |
| O=C(Nc1ccc2oc(=O)ccc2c1)c1ccc(-c2ccccc2[N+](=O)[O-])o1 | inactive |
| Cc1ccc(-c2nc3sc(C#N)c(N)n3c(=O)c2C#N)cc1 | inactive |
| CCC(C)n1cnc2c(c1=O)c1nc3ccccc3nc1n2-c1ccc2c(c1)OCCO2 (stereo unspecified) | inactive |
| COCCCNC(=O)c1c(N)n(-c2cccc(S(N)(=O)=O)c2)c2nc3ccccc3nc12 | inactive |
| CC(=O)Nc1cccc(NC(=O)CSc2ccc(C(F)(F)F)cc2[N+](=O)[O-])c1 | inactive |
| CN1C(=O)/C(=C/c2cccn2-c2ccc3ccccc3c2)C(=O)NC1=S | inactive |
| COc1ccc(O)c(/C=N/n2c(-c3ccco3)csc2=Nc2cccnc2)c1 | inactive |
| Cc1ccc(O)c(NC(=O)CSc2ccc(Cl)cc2)c1 | inactive |
| CCOc1ccc(N2CSC(=S)N(c3ccc(OCC)cc3)C2)cc1 | inactive |
| O=C(CSc1nnc(Cc2ccccc2)o1)N1CCc2ccccc21 | inactive |
| C=CCSc1nc(N)c(C#N)c(-c2ccccc2)c1C#N | inactive |
| Cc1cc(NC(=O)c2cc(-c3ccccn3)nc3ccc(Br)cc23)no1 | inactive |
| COc1ccc2c(c1)c(N=NC(N)=S)c(O)n2CC(=O)c1ccccc1 | inactive |
| Nc1cc(-c2ccc(Br)cc2)nn1S(=O)(=O)c1ccccc1 | inactive |
| CSc1nc(SCC(=O)O)c2sc3nc(-c4ccccc4)c4c(c3c2n1)CCC4 | inactive |
| CCOc1ccc(S(=O)(=O)N2CCN(C(=O)c3ccccc3Cc3ccccc3)CC2)cc1 | inactive |
| COc1cc(OC)cc(C(=O)OCc2cc3ccccc3[nH]c2=O)c1 | inactive |
| COc1ccccc1CNC(=O)COC(=O)c1ccc(S(=O)(=O)N2CCCC2)cc1 | inactive |
| O=C(CSc1ccsc1[N+](=O)[O-])Nc1cc(F)ccc1F | inactive |
| Cc1c(OCC(=O)NCc2ccccn2)ccc2c(-c3ccccc3)cc(=O)oc12 | inactive |
| O=C(NCCN1C(=O)S/C(=C\c2ccc(Cl)c(Cl)c2)C1=O)c1cnccn1 | inactive |
| O=C(COc1cc2oc(=O)c3c(c2cc1Cl)CCC3)Nc1ccccn1 | inactive |
| COc1cc(/C=C2/C(=N)N3OC(C)=CC3=NC2=O)ccc1OC(=O)c1ccco1 | inactive |
| CC(=O)c1ccc(NC(=O)CSc2ccsc2[N+](=O)[O-])cc1 | inactive |

| Structure (SMILES) | binding response, lower = inhibition |
| --- | --- |
| O=[N+]([O-])c1ccc(NCCNc2ccc([N+](=O)[O-])cc2)cc1 | inactive |
| O=C(Nc1ccc(-c2cn3c(n2)SCC3)cc1)c1ccc2c(c1)OCO2 | inactive |
| CCCCN(C)CCNC(=O)c1cc(-c2cccnc2)nc2ccc(S(=O)(=O)N3CCC(C)CC3)cc12 | inactive |
| COC(=O)c1cc(/C=C/c2ccccc2)on1 | inactive |
| Cc1nc2ccccc2nc1OCC(=O)Nc1ccc2ccccc2c1 | inactive |
| COc1ccccc1C(=O)Nc1ccc(Oc2ncnc3sc(-c4ccccc4)cc23)cc1 | inactive |
| O=C(Nc1cccc([N+](=O)[O-])c1)c1ccc(CSc2ccccc2)cc1 | inactive |
| O=C(NC1CCCC1)C(c1ccc(O)cc1)N(CC1CCCO1)C(=O)C1COc2ccccc2O1 (stereo unspecified) | inactive |
| O=C(Nc1cc(Cl)ccc1Cl)c1ccc(OC(=O)c2ccco2)cc1 | inactive |
| N=c1oc2ccc3ccccc3c2cc1C(N)=S | inactive |
| Cc1sc(NC(=O)CSc2nnc3scc(-c4ccccc4)n23)c(C#N)c1C | inactive |
| CCOC(=O)c1cn(-c2ccc([N+](=O)[O-])cc2)c2cc(Cl)c([N+](=O)[O-])cc2c1=O | inactive |
| COc1ccc(NC(=O)c2ccc3c(c2)C(=O)N(Cc2cccnc2)C3=O)cc1 | inactive |
| CCOC(=O)c1cc(-c2ccc(/C=C3/C(=O)N(c4ccc(C(=O)O)cc4)N=C3C)o2)ccc1Cl | inactive |
| COc1cc(C(C(=O)NC2CCCCC2)N(CCN2CCOCC2)C(=O)C2COc3ccccc3O2)cc(OC)c1OC (stereo unspecified) | inactive |
| Cc1ccc(O)c(NC(=O)c2ccc3c(c2)C(=O)N(Cc2cccnc2)C3=O)c1 | inactive |
| O=C(Nc1ccc(S(=O)(=O)NCc2ccccc2)cc1)C1CCCCC1 | inactive |
| Nc1c(C(=O)c2ccccc2)oc2ccc([N+](=O)[O-])cc12 | inactive |
| Nc1ncnc2oc(-c3ccco3)c(-c3ccco3)c12 | inactive |
| Cc1c(C(=O)Nc2ccc(OCc3ccccc3)cc2)cccc1[N+](=O)[O-] | inactive |
| COc1ccc2cc(C#N)c(SCC(=O)N3CC(=O)Nc4ccccc43)nc2c1 | inactive |
| Cc1cc(C)cc(N(CC(=O)NC2CCC(C)CC2)S(=O)(=O)c2c(C)noc2C)c1 (stereo unspecified) | inactive |
| CCCn1c(C)nc2c(c1=O)c1nc3ccccc3nc1n2-c1ccccc1 | inactive |
| COc1ccc(NC(=O)c2cc(-c3ccc(C)o3)nc3ccccc23)cc1OC | inactive |

| Structure (SMILES) | binding response, lower = inhibition |
| --- | --- |
| Cc1cc(=O)oc2c(C)c(OCC(=O)NCc3ccccn3)ccc12 | inactive |
| COc1ccc(OC)c(NC(=O)c2nc(-c3ccccc3)oc2C)c1 | inactive |
| CCc1nnc(NC(=O)CSc2ncnc3c2oc2ccccc23)s1 | inactive |
| COc1ccc(NC(=O)c2cc(-c3ccco3)nc3ccccc23)cc1 | inactive |
| Cc1ccc(NC(=O)CSc2ccc(C(N)=O)cc2[N+](=O)[O-])cc1C | inactive |
| CCOc1ccc(N(CC(=O)NCCSCc2ccco2)S(=O)(=O)c2ccc(C)cc2)cc1 | inactive |
| O=C(Nc1ccc(NS(=O)(=O)c2ccccc2)cc1)c1ccc(Cl)cc1 | inactive |
| COc1ccccc1-n1cnc2c(c1=O)c1nc3ccccc3nc1n2-c1ccc(C)c(C)c1 | inactive |
| CCOC(=O)CN1C(=O)/C(=C/c2ccccc2Br)Oc2ccccc21 | inactive |
| Cc1nnc2ccc(-c3ccc(NS(=O)(=O)c4ccccc4)cc3)nn12 | inactive |
| O=C(COC(=O)Cc1ccc(-c2ccccc2)cc1)NCc1ccc(F)cc1 | inactive |
| CCOc1ccc2nc(NC(=O)c3ccc(S(=O)(=O)N4CCOCC4)cc3)sc2c1 | inactive |
| COc1ccccc1CNC(=O)COC(=O)c1ccc(S(=O)(=O)N2CCCCC2)cc1 | inactive |
| O=C(c1cc2cc3ccc(Cl)cc3nc2o1)N1CCN(Cc2ccc3c(c2)OCO3)CC1 | inactive |
| CC(C)(C)NS(=O)(=O)c1ccc(NC(=O)c2cc(-c3ccccc3)nc3ccccc23)cc1 | inactive |
| CCOc1ccc(-n2nc3ccc(NC(=O)c4ccc5c(c4)OCCO5)cc3n2)cc1 | inactive |
| CCOC(=O)N1CCC(NC(=O)c2cc3c(-c4ccccc4F)nn(C)c3s2)CC1 | inactive |
| Cc1ccc2oc(-c3ccc(NC(=O)CC(C)C)cc3)nc2c1 | inactive |
| O=C(COc1cccnc1[N+](=O)[O-])Nc1cc(S(=O)(=O)N2CCCCC2)ccc1Cl | inactive |
| Cc1ccc(NC(=O)c2sc(N)nc2-c2ccc([N+](=O)[O-])cc2)cc1C | inactive |
| O=C1c2ccc(-c3ccc(F)cc3OCc3ccccc3)cc2S(=O)(=O)c2cccc(C(=O)N3CCN(c4ncc(Br)cn4)CC3)c21 | inactive |
| CCOC(=O)C1=C(N)n2c(s/c(=C\c3cccnc3)c2=O)=C(C(=O)OC)C1c1cccnc1 (stereo unspecified) | inactive |
